Experimental data taken from ChEMBL document CHEMBL1201862, “PubChem BioAssay data set” (2004).
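The compound was tested at five concentrations on cells cultured in 96-well plates, with a 48-hour exposure period. GI50 = concentration required for 50% inhibition of growth.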 Calls of active or inactive are those of the source. No stated cut-off is given here; in the data, active = GI50 up to about 1.1 µM and inactive = higher.

Legend:
Assay in all cases: NCI-60 cell line screen, 48 h
SF-268 = system: SF-268
SNB-19 = system: SNB-19
DMS-273 = system: DMS-273
OVCAR-5 = system: OVCAR-5
HCT-116 = system: HCT-116
NCI-H226 = system: NCI-H226
CAKI-1 = system: CAKI-1
NCI-H460 = system: NCI-H460
SK-MEL-2 = system: SK-MEL-2
HCT-15 = system: HCT-15
786-0 = system: 786-0
SF-295 = system: SF-295
U-251 = system: U-251
SF-539 = system: SF-539
Malme-3M = system: Malme-3M
HCC 2998 = system: HCC 2998
UACC-62 = system: UACC-62
A549 = system: A549
HOP-62 = system: HOP-62
HL-60 = system: HL-60

Structure (SMILES) | GI50 (SF-268) | GI50 (SNB-19) | GI50 (DMS-273) | GI50 (OVCAR-5) | GI50 (HCT-116) | GI50 (NCI-H226) | GI50 (CAKI-1) | GI50 (NCI-H460) | GI50 (SK-MEL-2) | GI50 (HCT-15) [µM] | GI50 (786-0) | GI50 (SF-295) | GI50 (U-251) | GI50 (SF-539) | GI50 (Malme-3M) | GI50 (HCC 2998) | GI50 (UACC-62) | GI50 (A549) | GI50 (HOP-62) | GI50 (HL-60)
CCNC(=O)/C=C/CCC#Cc1ccc(-c2ccc(-c3cccs3)s2)s1 | > 100 µM (inactive) | > 100 µM (inactive) | > 100 µM (inactive) | > 100 µM (inactive) | > 100 µM (inactive) | > 100 µM (inactive) | > 100 µM (inactive) | > 100 µM (inactive) | > 100 µM (inactive) | > 100 | > 100 µM (inactive) | > 100 µM (inactive) | > 100 µM (inactive) | > 100 µM (inactive) | 3.52 µM (inactive) | > 100 µM (inactive) | 2.9 µM (inactive) | > 100 µM (inactive) | > 100 µM (inactive) | > 100 µM (inactive)
CCOC(=O)CCc1c(C)c2c(OC(C)=O)cc(OC(C)=O)cc2oc1=O | 23.3 µM (inactive) | 65.9 µM (inactive) | 35 µM (inactive) | > 100 µM (inactive) | 62.1 µM (inactive) | > 10 µM (inactive) | > 100 µM (inactive) | 32.5 µM (inactive) | 28.4 µM (inactive) | – | 78.7 µM (inactive) | 56.5 µM (inactive) | 55.6 µM (inactive) | 70 µM (inactive) | 20.7 µM (inactive) | 82.8 µM (inactive) | – | 47.2 µM (inactive) | > 100 µM (inactive) | 40.2 µM (inactive)
CC(=O)OCC1OC(N2C(=O)/C(=N\NC(N)=S)c3ccc([N+](=O)[O-])cc32)C(OC(C)=O)C1OC(C)=O (centres undefined) | 30.8 µM (inactive) | 62.5 µM (inactive) | 17.4 µM (inactive) | 61.2 µM (inactive) | 13.7 µM (inactive) | 28.6 µM (inactive) | 38.4 µM (inactive) | 20.1 µM (inactive) | 20.7 µM (inactive) | 76 | 19.8 µM (inactive) | 29.1 µM (inactive) | 28.1 µM (inactive) | 24.1 µM (inactive) | 33.7 µM (inactive) | 26.4 µM (inactive) | 13.9 µM (inactive) | 40.8 µM (inactive) | 31.3 µM (inactive) | 16.6 µM (inactive)
Nc1nnc2nc(CC(=O)/C=C/c3ccccc3)c(=O)[nH]n12 | > 100 µM (inactive) | > 100 µM (inactive) | > 100 µM (inactive) | > 100 µM (inactive) | > 100 µM (inactive) | > 100 µM (inactive) | > 100 µM (inactive) | > 100 µM (inactive) | > 100 µM (inactive) | > 100 | > 100 µM (inactive) | > 100 µM (inactive) | > 100 µM (inactive) | > 100 µM (inactive) | > 100 µM (inactive) | > 100 µM (inactive) | > 100 µM (inactive) | > 100 µM (inactive) | > 100 µM (inactive) | > 100 µM (inactive)
CC1CCc2c(sc3ncnc(N/N=C/c4ccc(Cl)cc4)c23)C1 (centres undefined) | 25.1 µM (inactive) | 30.1 µM (inactive) | 37.4 µM (inactive) | > 100 µM (inactive) | 19.3 µM (inactive) | 11.7 µM (inactive) | 40.8 µM (inactive) | 29.4 µM (inactive) | 48.8 µM (inactive) | 32.3 | 34.7 µM (inactive) | 29.8 µM (inactive) | 31.9 µM (inactive) | > 10 µM (inactive) | > 100 µM (inactive) | 48.1 µM (inactive) | 31.1 µM (inactive) | 31 µM (inactive) | 41.9 µM (inactive) | 19.2 µM (inactive)
C=CCN1C(=O)CS/C1=N\NC(=O)c1c(C)nc2sccn12 | > 100 µM (inactive) | > 100 µM (inactive) | > 100 µM (inactive) | > 100 µM (inactive) | > 100 µM (inactive) | > 100 µM (inactive) | > 100 µM (inactive) | > 100 µM (inactive) | > 100 µM (inactive) | > 100 | > 100 µM (inactive) | > 100 µM (inactive) | > 100 µM (inactive) | > 100 µM (inactive) | > 100 µM (inactive) | > 100 µM (inactive) | > 100 µM (inactive) | > 100 µM (inactive) | > 100 µM (inactive) | > 100 µM (inactive)
CC1=C(C(=O)Nc2cc(F)c(F)cc2F)C(c2ccc(N(C)C)cc2)C(C(=O)Nc2cc(F)c(F)cc2F)=C(C)N1 | 27 µM (inactive) | 38.7 µM (inactive) | 26.9 µM (inactive) | 32.5 µM (inactive) | – | 20.6 µM (inactive) | 13.8 µM (inactive) | 30.3 µM (inactive) | 28.8 µM (inactive) | – | 27.1 µM (inactive) | 24.3 µM (inactive) | 28.9 µM (inactive) | 18.2 µM (inactive) | 32.7 µM (inactive) | 23.7 µM (inactive) | – | 16.4 µM (inactive) | 21.1 µM (inactive) | 13.9 µM (inactive)
CN(C)CCNC(=O)c1cccc2ccc(-c3cccnc3)nc12 | 5.65 µM (inactive) | 4.14 µM (inactive) | 3.35 µM (inactive) | 3.87 µM (inactive) | 3.24 µM (inactive) | 6.84 µM (inactive) | 3.88 µM (inactive) | 2.94 µM (inactive) | 8.57 µM (inactive) | 4.06 | 5.89 µM (inactive) | 5.69 µM (inactive) | 4.36 µM (inactive) | 11.4 µM (inactive) | 5.41 µM (inactive) | 5.31 µM (inactive) | 4.73 µM (inactive) | 3.7 µM (inactive) | 5.57 µM (inactive) | 3.71 µM (inactive)
COC(=O)c1ccccc1NC(=O)C(=O)CC(=O)c1ccccc1NC1=CC(=O)C(=O)c2ccccc21 | 5.96 µM (inactive) | 20.2 µM (inactive) | 10.7 µM (inactive) | 29.2 µM (inactive) | 4.67 µM (inactive) | 25.9 µM (inactive) | 23.8 µM (inactive) | 19.7 µM (inactive) | 12.5 µM (inactive) | 5.65 | 5.65 µM (inactive) | 15.6 µM (inactive) | 11.1 µM (inactive) | 18.6 µM (inactive) | 3.02 µM (inactive) | 25.6 µM (inactive) | 8.87 µM (inactive) | 16.3 µM (inactive) | 22.7 µM (inactive) | 1.55 µM (inactive)
CSc1n/c(=N\c2ccccc2)sn1-c1ccccc1 | 19.6 µM (inactive) | 17.1 µM (inactive) | 8.83 µM (inactive) | 17.3 µM (inactive) | 8.43 µM (inactive) | 15.5 µM (inactive) | 13.5 µM (inactive) | 4.79 µM (inactive) | 17.1 µM (inactive) | 13.8 | 16.6 µM (inactive) | 21.5 µM (inactive) | 14.9 µM (inactive) | 18.6 µM (inactive) | 24.3 µM (inactive) | 17.9 µM (inactive) | 4.76 µM (inactive) | 16.6 µM (inactive) | 15.6 µM (inactive) | 3.74 µM (inactive)
Cn1c(=O)c(NC(=O)C(Cl)(Cl)Cl)nc2ccccc21 | > 100 µM (inactive) | > 100 µM (inactive) | > 100 µM (inactive) | – | > 100 µM (inactive) | 81.8 µM (inactive) | > 100 µM (inactive) | > 100 µM (inactive) | > 100 µM (inactive) | > 100 | > 100 µM (inactive) | > 100 µM (inactive) | > 100 µM (inactive) | > 100 µM (inactive) | > 100 µM (inactive) | > 100 µM (inactive) | > 100 µM (inactive) | > 100 µM (inactive) | > 100 µM (inactive) | > 100 µM (inactive)
